The target of the assay is T1, adenosine A1 receptor (Rattus norvegicus, UniProt P25099).
T1 construct: Whole brain minus cerebellum and brainstem from male Long Evans rats; from tissue; host or cells: rat whole brain minus cerebellum and brainstem (male Long Evans), membranes
T1 sequence (P25099 1-326): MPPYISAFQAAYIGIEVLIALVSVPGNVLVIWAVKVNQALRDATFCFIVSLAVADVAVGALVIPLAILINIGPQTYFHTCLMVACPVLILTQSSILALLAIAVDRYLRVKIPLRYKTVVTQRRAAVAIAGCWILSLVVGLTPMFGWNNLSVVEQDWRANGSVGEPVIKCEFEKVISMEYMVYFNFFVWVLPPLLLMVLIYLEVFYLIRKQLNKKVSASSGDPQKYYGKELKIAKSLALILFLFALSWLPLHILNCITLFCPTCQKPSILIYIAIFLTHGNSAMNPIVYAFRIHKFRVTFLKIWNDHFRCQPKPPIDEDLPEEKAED
As to the kind of experiment: Adenosine Receptor Binding--A1 Receptor Affinity (RBA1), [3H]-CHA binding, rat whole brain membranes. Also on record: species or system rat (male Long Evans). The settings on record: 1.0 nM [3H]-CHA, 25° C., 1 h. As for the experimental part: Adenosine Receptor Binding--A1 Receptor Affinity (RBA1)
Whole brain minus cerebellum and brainstem from male Long Evans rats (150-200 g) was homogenized in 30 volumes of ice-cold 0.05M Tris-HCl buffer pH 7.7 using a Brinkman Polytron PT-10, (setting number 6 for 20 seconds) and centrifuged for ten minutes at 20,000×g (Sorvall RC-2), 4° C. The supernatant was discarded, and the pellet was resuspended and centrifuged as before. The pellet was resuspended in 20 ml Tris-HCl buffer containing two International Units/ml of adenosine deaminase (Sigma type III from calf intestinal mucosa), incubated at 37° C. for 30 minutes, then subsequently at 0° C. for ten minutes. The homogenate was again centrifuged, and the final pellet was resuspended in ice-cold 0.05M Tris-HCl buffer pH 7.7 to a concentration of 20 mg/ml original wet tissue weight and used immediately.
Tissue homogenate (10 mg/ml) was incubated in 0.05M Tris-HCl buffer pH 7.7 containing 1.0 nM [^3 H]-N^6 -cyclohexyladenosine[^3 H]-CHA) with or without test agents in triplicate for one hour at 25° C. Incubation volume was 2 ml. Unbound [^3 H]-CHA was separated by rapid filtration under reduced pressure through Whatman glass fiber (GF/B) filters. The filters were rinsed three times with 5 ml of ice cold 0.05M Tris-HCl buffer pH 7.7. The radio-labeled ligand retained on the filter was measured by liquid scintillation spectrophotometry after shaking the filters for one hour or longer on a mechanical shaker in 10 ml of Beckman Ready-Solv HP scintillation cocktail.
Nonspecific binding was defined as the binding which occurred in the presence of 1 mM theophylline. The concentration of test agent which inhibited 50% of the specific binding (IC50) was determined by nonlinear computer curve fit. The Scatchard plot was calculated by linear regression of the line obtained by plotting the amount of radioligand bound (pmoles/gram of tissue) [formula] Since the amount of radioligand bound was a small fraction of the total amount added, free radioligand was defined as the concentration (nM) of radioligand added to the incubation mixture. The Hill coefficient was calculated by linear regression of the line obtained by plotting the log of the bound radioligand vs the log of the [formula] The maximal number of binding sites (Bmax) was calculated from the Scatchard plot.

As usually defined, the IC50 is the concentration needed to halve the response being measured. Read a high IC50 as weaker potency.

The compound `OC[C@H]1O[C@@H](n2cnc3c(NCCC(c4ccccc4)c4ccccc4)ncnc32)[C@H](O)[C@@H]1O` [Example 2, N^6-(3,3-Diphenylpropyl)adenosine] yielded a 50% inhibitory concentration (IC50) of 139 nM.

For the origin of these results see US4657897A, “N^6 -substituted adenosines for treating pain” (Warner-Lambert Company, priority 1985, dated 1987).
